Assay results as given in US20020034534A1, “System and method for delivering a therapeutic agent over an extended period of time in conjuction with a receptor loading dose of the therapeutic agent” (priority 1999, published 2002).

How the values were obtained:
[1] = Naltrexone plasma pharmacokinetics from the literature and its reinterpretation; format: in vivo
Description: Phase II (RLD)—Days two to thirty. […] The higher serum levels of this phase serve two purposes. First, for the particular therapeutic agent chosen, the long-term maintenance dose releases drug slowly at a constant (zero order) rate. […] It has the disadvantage, however, that the plasma level will slowly rise until it reaches a plateau, which is referred to as steady state. The time to reach steady state is a function of the drug's half-life, a measure of the time it takes for half of the drug to be eliminated from the body. It takes approximately six half-lives to reach steady state for any drug. […] During this time it is essential that an additional source of drug be administered as a receptor loading dose to continue to saturate the drug receptors. A second reason for this loading dose, particularly for drugs used to treat addictions, is to prevent cravings and other withdrawal symptoms.
A period of approximately 3.3 half-lives is necessary to achieve a 90% receptor occupancy level.
Phase II (months 1 to 2) provides higher levels than the minimum needed to prevent narcotic highs. […] For pharmacokinetic reasons, the higher levels are also needed until the steady state distribution levels are reached through the slower maintenance dose.

opiate receptors = details: recommended dose of 50 mg taken orally; cited from earlier work

## O=C1CC[C@@]2(O)[C@H]3Cc4ccc(O)c5c4[C@@]2(CCN3CC2CC2)[C@H]1O5 [naltrexone]
[1]; calculated as 3.3×72 hr at the maintenance rate
  time to reach 90% receptor occupancy level: about 10 days
[1]; maintenance rate
  time to reach 98% occupancy: about 20 days
[1]; subcutaneous product, zero order rate of 0.56 mg/day
  steady state level: about 7.5 ng/ml
Opiate receptors
  duration of complete blockage: 24 h
